Assay results reported in patent publication US8207313B2, “Natural products from Vinca” (William Marsh Rice University, priority 2007, dated 2012).

Key:
Assay type in all cases: cell-based, Human
MMP-9 = MMP-9 expression in LPS-stimulated THP-1 cells (gelatin zymography); settings: THP-1 cells pre-treated 2 h with 5, 10 and 20 μg/ml compound, then 1 μg/ml LPS, supernatant at 24 h; MMP-2 internal control
Description: Several of the compounds were tested for pharmaceutical activity against two well known inflammatory mediators—MMP-9 and TNF-α. Compounds (1), (2), (3), and (4), were tested. An inflammatory reaction is stimulated with LPS and MMP-2 is used as an internal gene expression control.
The inhibitory effect of flavonoid glycoside compounds on MMP-9 expression (FIG. 1) was assayed in THP-1 cells stimulated with LPS. In panels A, C, E and G; THP-1 cells were pre-treated with 5, 10 and 20 μg/ml of the compound specified for 2 h. After pre-treatment with the relevant compound, the cells were then stimulated with 1 μg/ml LPS. The culture supernatants were collected 24 h after activation and subjected to substrate gel electrophoresis (gelatin zymography) and staining with Coomassie brilliant blue.

THP-1 cells = assay: THP-1 cell viability, MTS assay; settings: THP-1 cells treated with the compound as in the MMP-9 test
Description: In panels B, D, F and H; THP-1 cells were treated with the compound in A, C, E and G, and cell viability was tested with MTS assay.

TNF-α = TNF-α in culture supernatant of LPS-activated THP-1 cells (sandwich ELISA); settings: THP-1 cells pre-treated 2 h with compound, 1 μg/ml LPS, supernatant at 24 h, ELISA in duplicate
Description: The blocking effect of compounds on cytokines expression (FIG. 2) induced by LPS in monocytic cell lines was then assessed. THP-1 cells were pre-treated with compounds for 2 h and activated with 1 μg/ml LPS. Culture supernatants were collected in 24 h and the TNF-α concentrations were measured using sandwich ELISA. Measurements were done in duplicate. […] Therefore the compounds work to suppress inflammatory response and are potent anti-inflammatory compounds.

Row | Compound | inhibition of MMP-9 expression (MMP-9) | cell viability (THP-1 cells) | TNF-α production (TNF-α)
1 | C/C=C(\C)[C@@H](CCC(C)CCCC(C)CCCC(C)C)OC1C(CO)OC(Oc2cc(O)c3c(=O)c(O)c(-c4ccc(OC)c(OC)c4)oc3c2)C(O)C1O (stereo partly drawn) [Compound (1), 3,5,7-trihydroxy-3′,4′-dimethoxyflavone-7β-D-glucopyranosyl(4″-13′″)2′″,6′″,10′″,14′″-tetramethyl hexadec-14-ene] | inhibits MMP-9 expression in a dose dependant manner | no negative impact on cell viability | inhibited
2 | CCC(C)C(CCC(C)CCCC(C)CCCC(C)C)OC1(CO)COC(COc2c(-c3ccc(OC)cc3)oc3cc(O)cc(O)c3c2=O)C(O)C1O [Compound (2), 3,5,7-trihydroxy-4′-methoxyflavone-3β-D-glucopyranosyl (4″-13′″)-2′″,6′″,10′″,14′″-tetramethyl hexadecane] | inhibits MMP-9 expression in a dose dependant manner | no negative impact on cell viability | inhibited
3 | C=C(CCC=C(C)C)CC/C=C(\C)CC(=O)OCC1OC(Oc2ccc3c(c2)OC(c2ccc(OC)c(OC)c2)CC3=O)C(O)C(O)C1O (stereo not drawn) [Compound (3)] | inhibits MMP-9 expression in a dose dependant manner | no negative impact on cell viability | inhibited
